# Test results reported in patent US20140017223A1, “Pharmaceutical Compositions Comprising A Pancreatic Enzyme Preparation With Viral Infectivity Reduced Below A Significant Level And Methods Of Preparing And Using The Same” (Aptalis Pharma Canada Inc., priority 2010, published 2014).
# Several values for one entry are separate records, joined by “and”; a condition that tells them apart may be missing. Equal entries are not always repeated.
# Columns and labels:
# PPV [1] = assay: Kinetics of PPV inactivation in PEP samples with 0.4% BPL at 4° C. (Example 7); format: cell-based, porcine parvovirus (PPV); settings: PEP conc. 100 mg/mL
# Description: Samples prepared in the same way as described in Example 1 were treated at 4° C. in an aqueous media (i.e. mixture of water and isopropyl alcohol).
# PPV [2] = assay: Inactivation of spiked PPV in pancrelipase (PEP) by BPL, PPV titered by dilution method (Example 1); format: cell-based, porcine parvovirus (PPV); settings: 48 h, 20° C.; for Detected PPV Titer: 0*=below detection limit of 10^3 FFID50/g
# Description: For example, two preparations can be tested for PPV or another virus on one 96-well plate, with the positive controls incubated on another parallel plate. For PPV the samples can be serially diluted (for example, 1:4 in each step for a total of 8 dilutions) in cell culture medium prior to application and incubated with cell cultures for at least 5 days at 37° C. in 5% CO2. After sample removal and the fixation of the cells by paraformaldehyde, the presence of PPV (or other) virus infection is monitored in each well by an anti-PPV antibody using a standard immunofluorescent assay. The number of wells that contain positively stained cells are recorded in a table. Fluorescence Focus Infectious Doses (FFID50) are calculated according to the Karber formula: […]
# All data are recalculated for 1-gram dry PEP, e.g., pancrelipase, sample after the consideration of processed sample volumes and dilutions. In certain embodiments, the assay is repeated several times using six parallel wells to quantify the level of infectious viruses.
# Pancrelipase powders from 2 different lots were each dissolved in 100 mM Tris, pH=8.3, at a concentration of 100 mg/ml. Two ml non-purified PPV viral stock (prepared using standard protocols (Arella et al., Physicichemical properties, production, and purification of parvoviruses. 1990, In Tijssen, P. (ed.), CRC handbook of parvoviruses. Boca Raton, Fla.: CRC Press, 11-30)) were added to 38 ml of the pancrelipase solution. The virus was mixed with the PEP using slow shaking at room temperature for one day. Aliquots were taken from the PPV-spiked pancrelipase stocks and each was incubated with different concentrations of BPL (available from Sigma-Aldrich, St. Louis, Mo.) (except the control) for 48 hours at room temperature (20° C.). The level of viral inactivation was measured by the titration of PPV infectivity using serial dilutions of 1,000 times or more since the titer of spiked virus was high. Determination of the FFID50 was performed using the fluorescence assay as described in the PPV FFID-infectivity assay of U.S. Patent Publication No. 2009/0226414.
smiles,measurement,setting,value
"O=C1CCO1 [BPL, Beta-propiolactone]",Average PPV titer (log reduction),PPV [1]; reaction time 15 min,1.1 log
same,Average PPV titer (log reduction),PPV [1]; reaction time 30 min,1.6 log
same,Average PPV titer (log reduction),PPV [1]; reaction time 45 min,2 log and 2.0 log
same,Average PPV titer (log reduction),PPV [1]; reaction time 60 min,2.2 log
same,Average PPV titer (log reduction),PPV [1]; reaction time 720 min,4.8 log
same,PPV Titer reduction,"PPV [2]; PEP #1, 0.1% (v/v) BPL",2.37 × 10^3 FFID50/g
same,Detected PPV Titer,"PPV [2]; PEP #1, 0.1% (v/v) BPL",4.22 × 10^4 FFID50/g
same,PPV Titer reduction,"PPV [2]; PEP #1, 0.2% (v/v) BPL",>10^5 FFID50/g
same,Detected PPV Titer,"PPV [2]; PEP #1, 0.2% (v/v) BPL",< 0* FFID50/g
same,PPV Titer reduction,"PPV [2]; PEP #1, 0.4% (v/v) BPL",>10^5 FFID50/g
same,Detected PPV Titer,"PPV [2]; PEP #1, 0.4% (v/v) BPL",< 0* FFID50/g
same,PPV Titer reduction,"PPV [2]; PEP #1, 0.8% (v/v) BPL",>10^5 FFID50/g
same,Detected PPV Titer,"PPV [2]; PEP #1, 0.8% (v/v) BPL",< 0* FFID50/g
same,PPV Titer reduction,"PPV [2]; PEP #2, 0.1% (v/v) BPL",2.37 × 10^3 FFID50/g
same,Detected PPV Titer,"PPV [2]; PEP #2, 0.1% (v/v) BPL",4.22 × 10^4 FFID50/g
same,PPV Titer reduction,"PPV [2]; PEP #2, 0.2% (v/v) BPL",>10^5 FFID50/g
same,Detected PPV Titer,"PPV [2]; PEP #2, 0.2% (v/v) BPL",< 0* FFID50/g
same,PPV Titer reduction,"PPV [2]; PEP #2, 0.4% (v/v) BPL",>10^5 FFID50/g
same,Detected PPV Titer,"PPV [2]; PEP #2, 0.4% (v/v) BPL",< 0* FFID50/g
same,PPV Titer reduction,"PPV [2]; PEP #2, 0.8% (v/v) BPL",>10^5 FFID50/g
same,Detected PPV Titer,"PPV [2]; PEP #2, 0.8% (v/v) BPL",< 0* FFID50/g
same,PPV Titer reduction,"PPV [2]; PEP #3, 0.1% (v/v) BPL",4.22 × 10^3 FFID50/g
same,Detected PPV Titer,"PPV [2]; PEP #3, 0.1% (v/v) BPL",5.62 × 10^4 FFID50/g
same,PPV Titer reduction,"PPV [2]; PEP #3, 0.2% (v/v) BPL",>10^5 FFID50/g
same,Detected PPV Titer,"PPV [2]; PEP #3, 0.2% (v/v) BPL",< 0* FFID50/g
same,PPV Titer reduction,"PPV [2]; PEP #3, 0.4% (v/v) BPL",>10^5 FFID50/g
same,Detected PPV Titer,"PPV [2]; PEP #3, 0.4% (v/v) BPL",< 0* FFID50/g
same,PPV Titer reduction,"PPV [2]; PEP #3, 0.8% (v/v) BPL",>10^5 FFID50/g
same,Detected PPV Titer,"PPV [2]; PEP #3, 0.8% (v/v) BPL",< 0* FFID50/g
same,PPV Titer reduction,"PPV [2]; PEP #4, 0.1% (v/v) BPL",1.33 × 10^8 FFID50/g
same,Detected PPV Titer,"PPV [2]; PEP #4, 0.1% (v/v) BPL",< 0* FFID50/g
same,PPV Titer reduction,"PPV [2]; PEP #4, 0.2% (v/v) BPL",>10^5 FFID50/g
same,Detected PPV Titer,"PPV [2]; PEP #4, 0.2% (v/v) BPL",< 0* FFID50/g
same,PPV Titer reduction,"PPV [2]; PEP #4, 0.4% (v/v) BPL",>10^5 FFID50/g
same,Detected PPV Titer,"PPV [2]; PEP #4, 0.4% (v/v) BPL",< 0* FFID50/g
same,PPV Titer reduction,"PPV [2]; PEP #4, 0.8% (v/v) BPL",>10^5 FFID50/g
same,Detected PPV Titer,"PPV [2]; PEP #4, 0.8% (v/v) BPL",< 0* FFID50/g
